Assay results: US20240252654A1, “IMPROVED SMALL MOLECULES” (University of Dundee, priority 2020, published 2024)

Experiments:
HiBiT-BRD4 [1] = target: T1, HiBiT-BRD4 (Homo sapiens, UniProt O60885); experiment: NanoBRET target engagement, permeabilized and live cells; format: cell-based
T1 construct: endogenously HiBiT tag the N-terminal genomic loci of BRD2, BRD3, or BRD4; endogenous in cells; host or cells: HEK293 stably expressing LgBiT, CRISPR/Cas9 edited
Description: Cells were treated with a fluorescent BET tracer, then incubated with the indicated compounds at various concentrations to measure competitive displacement.
(§1) NanoBRET Target Engagement and Residence Time. For target engagement experiments in live and permeabilized cells, CRISPR HiBiT-BRD4 HEK293 cells stably expressing LgBiT were plated into white 96-well tissue culture plates at a density of 2×10^4 cells/well. Cells were equilibrated for 1 h with energy transfer probes and the indicated test compound prior to NanoBRET measurements. NanoBRET tracers were prepared at a working concentration of 20× in tracer dilution buffer (12.5 mM HEPES, 31.25% PEG-400, pH 7.5). NanoBRET BRD Tracer-02 was added to cells at a final concentration of 0.5 μM. To measure NanoBRET in live cells, NanoBRET NanoGlo Substrate and Extracellular NanoLuc Inhibitor (Promega) were added according to the manufacturer's recommended protocol, and filtered luminescence was measured on a GloMax Discover luminometer equipped with 450 nm BP filter (donor) and 600 nm LP filter (acceptor) using 0.3 s integration time. To measure NanoBRET in permeabilized cells, digitonin was added to the cells to a final concentration of 50 μg/mL and Extracellular NIuc inhibitor was omitted during the detection step. […] Cells were incubated in 15 mL conical tubes with caps loosened in a tissue culture incubator for 1 h. Following incubation, cells were spun at 300×g for 5 min, washed once with Opti-MEM, spun a second time at 300×g for 5 min, then resuspended with fresh Opti-MEM before plating at 2×10^4 cells/well. NanoBRET BRD Tracer-02 was added at a final concentration of 0.5 μM cells and kinetic NanoBRET measurements were collected on a GloMax Discover. NanoBRET ratios were expressed in milliBRET units and calculated according to the equation in the NanoBRET Ubiquitination, Ternary Complex and Biosensor Experiments section.

22Rv1 cells = experiment: PARP cleavage immunoblot in 22Rv1 cells; format: cell-based; conditions: 22Rv1, 10 nM, 24 h (MT1, MZ1 up to 48 h)
Description: Next, the inventors assessed the functional effects of SIM1 on the viability of 22Rv1 cancer cells. […] Cells died of apoptosis as indicated by prevented cleavage of PARP upon co-treatment with QVD-OPh, a pan-caspase inhibitor, and not of necroptosis, as shown by co-treatment with Necrostatin-1 (FIG. 3d and FIG. 10a).
Degradation assays. MV4; 11 cells were seeded at 1×10^6 cells/mL of 10 cm dishes 12-24 h before treatment. 22Rv1 and HEK293 cells were seeded at 2.5-6×10^5 cells/well of 6 well plates 12-24 h before treatment. Cells were treated with test compounds with and without inhibitors as indicated or an equivalent volume of DMSO and lysed at the stated time point. For lysis, cells were washed twice in ice cold PBS (Invitrogen) then lysed in 250 μL/plate for MV4; 11 cells or 80 μL/well for 22Rv1 and HEK293 cells of ice cold lysis buffer containing 50 mM Tris hydrochloride pH 7.4, 150 mM sodium chloride, 1 mM EDTA pH 7.4, 1% v/v Triton X-100, 1×Halt™ Protease Inhibitor Cocktail (ThermoFisher). […] Protein concentration was determined by BCA assay (Pierce) and the absorbance at 562 nm measured by spectrophotometry (NanoDrop ND1000). […] Bands were detected using a ChemiDoc MP imaging system (BioRad) and quantified (Image Studio Lite, version 5.2) with normalisation to β-actin and the DMSO control per time point. […]

MV4; 11 cells = experiment: Correlative cell viability in cMyc-HiBiT MV4;11 cells (CellTiter-Glo); format: cell-based; conditions: 1 nM, after 6 h
Description: Monitoring cMyc Loss and Cell Viability in MV4; 11 Cells. CRISPR cMyc-HiBiT MV4; 11 cells (Promega) were plated at a density of 5×10^4 cells per well in solid, white 96-well tissue culture plates (Corning Costar #3917). Following an overnight incubation, they were treated with 1-100 nM concentration of the indicated compounds and at the plotted time points, cMyc levels were determined using luminescent measurement with NanoGlo HiBiT lytic reagent (Promega). Replicate plate of all compound treatments were prepared and at identical timepoints as the protein level measurements, cell viability was measured using Cell-Titer Glo (Promega). Plates were shaken on an orbital shaker for 10-20 min before reading luminescence on a GloMax Discover Microplate Reader (Promega).

[2] = tested on: VHL and full-length BRD4 WT, N140F, or N433F; experiment: Kinetic NanoBRET ternary complex assay, NanoLuc-BRD4 with HaloTag-VHL; format: cell-based, human
Description: NanoBRET Ubiquitination, Ternary Complex, and Biosensor Experiments. For endogenous live cell BET:Ubiquitin and BET:VHL assays, CRISPR HiBiT-BRD2, HiBiT-BRD3, and HiBiT-BRD4 HEK293 cells stably expressing LgBiT were transfected with 2 μg of HaloTag-UBB or HaloTag-VHL vectors in 6-well plates using FuGENE HD (Promega). For full transient NanoBRET experiments with NanoLuc-BRD4 WT, N433F, or N140F mutants, HEK293 cells (8×10^5) were co-transfected with 0.02 μg NanoLuc-BRD4 and 2 μg of HaloTag-VHL vectors. For transient NanoBRET experiments with the BRD4 NL-BD1-BD2-HT biosensor containing either the WT tandem BD1-BD2 domain (AA 44-460) or containing the N433F mutation, HEK293 cells (8×10^5) were transfected with 0.02 μg biosensor plasmid and 2 μg carrier DNA. […] NanoBRET NanoGlo (Promega) substrate was added and BRET was measured two hours post-compound treatment using a GloMax Discover Microplate Reader (Promega). Dual filtered luminescence was collected with a 460/80 nm bandpass filter and a 610 nm long pass filter (acceptor, HaloTag NanoBRET ligand) using an integration time of 0.5 s. For all NanoBRET experiments, background subtracted NanoBRET ratios expressed in milliBRET units were calculated from the equation: […]

HiBiT-BRD4 [3] = target: T1, HiBiT-BRD4; experiment: NanoBRET live cell residence time; format: cell-based; conditions: live cells
Description: as §1

BRD2 and BRD4 = experiment: Dose-response degradation immunoblot in RCC4-HA-VHL cells; format: cell-based; conditions: 6 h, 500 nM to 6.4 pM
Description: Compound MN674 was designed and synthesised as another analogue of SIM1. […] MN674 was tested in the mammalian cell line RCC4-HA-VHL in a dose-response degradation assay. The assay involved immunoblots (see FIG. 21 for raw western blot data and FIG. 22 for dose-response curves) displaying 6 hour treatments of eight 5-fold serial dilutions from 500 nM to 6.4 pM of each compound. […] RCC4-HA-VHL cells were exposed to eight 5-fold serial dilutions (from 500 nM to […]) of heterotrivalent Bet-Bet-VHL PROTACs SIM1 and MN674 for 6 hour treatments, before lysates were harvested and analysed on immunoblots (FIG. 21). A Bio-Rad MP imaging system was used for fluorescence detection of BRD2 (IRDye 800CW), BRD4_long (IRDye 800CW), BRD4_short (IRDye 800CW) and house-keeping gene Tubulin (Rhodamine). The intensities of the bands were determined using ImageLab software and all BET protein intensities normalised to Tubulin in order to convert them into a percentage band intensity rationalised to the 0.1% DMSO-only control. These intensities were then plotted in GraphPad Prism for Dose-Response [Inhibition] Variable slope (four parameter) analyses to generate the curves for BRD2 (FIG. 22a) and BRD4 (FIG. 22b), to determine the DC50 values presented in Table 3 (FIG. 20). The experiment is representative of n=2 i.e. biological duplicate.

Row | Structure (SMILES) | IC80 (HiBiT-BRD4 [1]; live cell format, unit given with each value, read-out: IC80 for tracer displacement) [nM] | binding to endogenous HiBiT-BRD4 (HiBiT-BRD4 [1]; permeabilized cells) | PARP cleavage / cell death (22Rv1 cells) | measurable cellular death (MV4; 11 cells) | ternary complex formation [2] | residence time on BRD4 (HiBiT-BRD4 [3]) | degradation potency relative to SIM1 (BRD2 and BRD4)
1 | Cc1sc2c(c1C)C(c1ccc(Cl)cc1)=N[C@@H](CC(=O)NCCOCCOCCOCCOCCOCCOCCOCCNC(=O)C[C@@H]1N=C(c3ccc(Cl)cc3)c3c(sc(C)c3C)-n3c(C)nnc31)c1nnc(C)n1-2 [MT1] | 100 | near-identical binding affinities and IC50 values | did not cause observable PARP cleavage | not | not | longer residence time | 
2 | Cc1ncsc1-c1ccc(CNC(=O)[C@@H]2C[C@@H](O)CN2C(=O)[C@@H](NC(=O)COCC(C)(COCCOCCNC(=O)C[C@@H]2N=C(c3ccc(Cl)cc3)c3c(sc(C)c3C)-n3c(C)nnc32)COCCOCCNC(=O)C[C@@H]2N=C(c3ccc(Cl)cc3)c3c(sc(C)c3C)-n3c(C)nnc32)C(C)(C)C)cc1 [MN674, N,N′-(8-((2-(((S)-1-((2S,4R)-4-hydroxy-2-((4-(4-methylthiazol-5-yl)benzyl)carbamoyl)pyrrolidin-1-yl)-3,3-dimethyl-1-oxobutan-2-yl)amino)-2-oxoethoxy)methyl)-8-methyl-3,6,10,13-tetraoxapentadecane-1,15-diyl)bis(2-((S)-4-(4-chlorophenyl)-2,3,9-trimethyl-6H-thieno[3,2-f][1,2,4]triazolo[4,3-a][1,4]diazepin-6-yl)acetamide)] |  |  |  |  |  |  | comparable in degradation potencies to SIM1
